Experiment [1] deals with hair follicles on the dorsal skin of female C57BL/6 mice. The experiment can be described thus: mouse model of hair regeneration (dorsal skin, refractory telogen phase).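 Also: mice roughly 8 weeks old, negative control skin section treated with 100% alcohol, regrowth checked daily with day counted from start of dosing.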 Conditions: high dosage level (2000 μM) on dorsal skin, once a day for 10 days, negative = no hair growth.
Procedure: The mouse model adopts female C57BL/6 mice (about 8 weeks).
In the present disclosure, the sample solution is applied on the dorsal skin, where the hair follicle stays at the refractory telogen phase, to observe whether the peptides are beneficial to hair growth.
The sample solution is applied on each of the sections for 10 days. The administration of the sample solution includes, but not limited to, the injection (50 μl) and the coating (10 μl). In addition, the dosage of the sample solution includes, but not limited to, the high dosage level (2000 μM) and the low dosage level (200 μM).
In order to avoid experimental error due to manual operation, a positive control and a negative control are predetermined on two sections. […] The second section 2 is coated with high dosage level of HGP or the pharmaceutical composition for 10 days (once a day). The third section 3 is coated with low dosage level of HGP or the pharmaceutical composition for 10 days (once a day). The fourth section 4 is coated with 100% alcohol for 10 days (once a day). The fourth section 4 is regarded as the negative control. The fifth section 5 is continuously injected with the high dosage of HGP or pharmaceutical composition for 10 days (once a day). The sixth section 6 is continuously injected with the low dosage of HGP or pharmaceutical composition for 10 days (once a day). The HGP prepared for the sections is the same amino acid sequence.
HGP or pharmaceutical composition having the same as referred at the table 1 is implemented through the above-mentioned process and then the hair regeneration condition is recorded everyday. Since the period of the refractory telogen phase is 28 days, it is regards as a negative result that no hair regeneration is observed at thirtieth day after the administration of the sample solution.
The number x of the hair growth in the table 3 means that the hair regeneration condition is observed at the x'th day after the high dosage level is administrated on the dorsal skin. For instance, the number (x=5) means that the hair growth is observed at fifth day. Furthermore, the symbol NA represents the need for further analysis. […] In addition, the “negative” represents no hair growth by using the peptide in accordance with the experimental number.
The subject of experiment [2] is β-catenin activity in HaCaT Keratinocytes. As to the kind of experiment: TCF reporter assay in HaCaT Keratinocyte cell line. The class given is cell-based. Conditions: HaCaT cells, 200 μM peptide, TOP/FOP reporter, FIG. 7; listed as SEQ ID No: 1. As to the method:
FIG. 7 illustrates a schematic view of a TCF reporter assay in HaCaT Keratinocyte cell line. TOP represents that the reporter gene has a functional binding site where β-catenin is bound. […] CTL represents that HaCaT Keratinocytes are not treated with any stimulant. iPept-1 means that HaCaT Keratinocytes are treated with the SEQ ID No: 1 peptide.
(§1) In the present disclosure, Human Hair Follicular Keratinocytes (HHFK), HaCaT Keratinocyte and macrophages are used as cell models for realizing the mechanism. Reporter assay and QRT-PCR are used as bioactivity assays to identify how the SEQ ID No. 1 peptide improves hair growth.
For orientation: In a reporter assay the amount or activity of a reporter protein is the signal.

The test system of experiment [3] is Wnt16 gene expression in macrophages. As to the kind of experiment: RT-PCR / QRT-PCR analysis in macrophages, Wnt16. Conditions: 200 μM peptide for 8 hours. The experiment is classed as cell-based, human. As to the method:
(§2) The SEQ ID No. 1 peptide is treated in HHFK, HaCaT and human macrophage to study the hair growth mechanism induced by the SEQ ID No. 1 peptide. In the present disclosure, Human Hair Follicular Keratinocytes (HHFK), HaCaT Keratinocyte and macrophages are used as cell models for realizing the mechanism. Reporter assay and QRT-PCR are used as bioactivity assays to identify how the SEQ ID No. 1 peptide improves hair growth. After macrophages are treated with the 200 μM SEQ ID No: 1 peptide (iPept-1) for 8 hours, gene regulation of Wnt family (Wnt1, Wnt2, Wnt3a, Wnt4, Wnt6, Wnt7a, Wnt7b, Wnt10a, Wnt10b, Wnt16) are detected by RT-PCR and QRT-PCR tests as shown in FIGS. 8 and 9. It is observed that the transcription level of Wnt16 and Wnt7b increases in accordance with the treatment of iPept-1.

Experiment [4] relates to β-catenin in the hair follicle stem cells. The experiment can be described thus: immuno-fluorescent staining, β-catenin marker. The class given is in vivo, mouse. Conditions: FIG. 5, listed as SEQ ID No: 1. As to the method: (§3) After the female C57BL/6 mice are injected with the SEQ ID No. 1 peptide, the immuno-fluorescent staining with the marker CK15 is performed so as to observe whether the genes, such as Wnt3a, Wnt/β-catenin are activated or not.
(§4) Thus, the SEQ ID No: 1 peptide enables activation of the regeneration of the hair follicle stem cells. In order to realize how the SEQ ID No: 1 peptide activates the regeneration of the hair follicle stem cells, the immuno-fluorescent staining in accordance with Win/β-catenin signal transduction pathway is performed. […] Since β-catenin is a downstream gene of Wnt signal transduction pathway, activating β-catenin allows the initiation of a Wnt signal transduction pathway so as to regenerate the hair follicle stem cell. […] In other words, the SEQ ID No: 1 peptide may activate the Wnt/β-catenin signal transduction pathway to activate the regeneration of the hair follicle stem cells.

For experiment [5], the system named is Wnt7b gene expression in macrophages. The experiment can be described thus: RT-PCR analysis in macrophages, Wnt7b. The experiment is classed as cell-based, human. Conditions: 200 μM peptide for 8 hours. As to the method:
as §2

Experiment [6] has as its system β-catenin activity in Human Hair Follicular Keratinocytes (HHFK). The experiment can be described thus: TCF reporter assay in HHFK cell line. Conditions: HHFK cells, 200 μM peptide, TOP/FOP reporter, FIG. 6; listed as SEQ ID No: 1. The class given is cell-based. As to the method: FIG. 6 illustrates a schematic view of a TCF reporter assay in Human Hair Follicular Keratinocytes (HHFK) cell line. TOP represents that the reporter gene has a functional binding site where β-catenin is bound. […] CTL represents that HHFK cell line is not treated with any stimulant. iPept-1 means that HHFK cell line is treated with the SEQ ID No: 1 peptide.
as §1

Experiment [7] deals with marker CK15 of the hair follicle stem cells. As to the kind of experiment: immuno-fluorescent staining, marker CK15. Conditions: mice injected with the peptide, FIG. 3. The class given is in vivo, mouse. As to the method: as §3, §4
In experiment [8] the test system is Wnt3a in the hair follicle stem cells. As to the kind of experiment: immuno-fluorescent staining, Wnt3a marker. The class given is in vivo, mouse. Conditions: FIG. 4. As to the method: as §3, §4

Entries after “also recorded” stand apart in the source; their conditions may differ.

As for “FGSFGLITHTI (a designed peptide according to experiment) [P39]”, the “Number x (hair regeneration observed at the x'th day)” value (from here on “Number x”) in experiment [1] is listed as “negative”.

In the case of “FGSFGSITHTI (a designed peptide according to experiment) [P40]”, in experiment [1], the “Number x” value is on record as “negative”.

For the substance “FGSFVLITHTI (a designed peptide according to experiment) [P38]”, the “Number x” value in experiment [1] is reported as “negative”.

“FGSHVLITHTI (a designed peptide according to experiment) [P37]”: the “Number x” value in experiment [1] is given as “negative”.

As for “FGTHVLITHTI (a designed peptide according to experiment) [P36]”, the “Number x” value in experiment [1] stood at 15 days.

As to “FSTHVLITHTI (a designed peptide according to experiment) [P35]”, the “Number x” value in experiment [1] is 15 days.

Regarding “GSFGFLITHTI (a designed peptide according to experiment) [P33]”, the “Number x” value in experiment [1] is reported as “negative”.

Take “GSFGSFITHTI (a designed peptide according to experiment) [P34]”: the “Number x” value in experiment [1] is recorded as “negative”.

With “GSFGVLITHTI (a designed peptide according to experiment) [P32]”, the “Number x” value in experiment [1] is “negative”.

For the substance “GSFHVLITHTI (a designed peptide according to experiment) [P31]”, the “Number x” value in experiment [1] is listed as “negative”.

Take “GSTHVLITHTI (a designed peptide according to experiment) [P30]”: in experiment [1], the “Number x” value came to 22 days.

Take “HVLIT (a designed peptide according to experiment) [P2]”: the “Number x” value in experiment [1] amounted to 17 days.

As to “HVLITHTI (a designed peptide according to experiment) [P15]”, the “Number x” value in experiment [1] was “negative”.

On to “ITHTI (a designed peptide according to experiment) [P7]”, for which the “Number x” value in experiment [1] was 17 days.

With “LITHT (a designed peptide according to experiment) [P4]”, the “Number x” value in experiment [1] was determined as 17 days.

“LITHTI (a designed peptide according to experiment) [P17]”: the “Number x” value in experiment [1] came to 22 days.

As to “PSTHVL (a designed peptide according to experiment) [P8]”, the “Number x” value in experiment [1] stood at 15 days.

As for PSTHVLGSFGS [P18], the “Number x” value in experiment [1] worked out at 22 days.

For the substance “PSTHVLI (a designed peptide according to experiment) [P9]”, the “Number x” value in experiment [1] is listed as “negative”.

For PSTHVLIFGSG [P24], in experiment [1], the “Number x” value is “negative”.

For “PSTHVLIGSFG (a designed peptide according to experiment) [P19]”, the “Number x” value in experiment [1] is listed as “negative”.

“PSTHVLIT (a designed peptide according to experiment) [P10]”: the “Number x” value in experiment [1] is listed as “negative”.

On to “PSTHVLITGSF (a designed peptide according to experiment) [P20]”, for which the “Number x” value in experiment [1] was “negative”.

Regarding “PSTHVLITGSG (a designed peptide according to experiment) [P25]”, the “Number x” value in experiment [1] was 22 days.

Turning to “PSTHVLITH (a designed peptide according to experiment) [P11]”, in experiment [1], the “Number x” value was determined as 19 days.

Regarding “PSTHVLITHGS (a designed peptide according to experiment) [P21]”, the “Number x” value in experiment [1] stood at 23 days.

Consider “PSTHVLITHSG (a designed peptide according to experiment) [P26]”, for which the “Number x” value in experiment [1] came to 22 days.

As to “PSTHVLITHT (a designed peptide according to experiment) [P12]”, the “Number x” value in experiment [1] stood at 19 days.

Regarding “PSTHVLITHTG (a designed peptide according to experiment) [P22]”, the “Number x” value in experiment [1] was 23 days.

As to “PSTHVLITHTI (a designed peptide according to experiments) [P1]”, the “relative luciferase activity (activity of β-catenin)” value in experiment [2] and in experiment [6] was “increase the activity of β-catenin; also recorded: enhance activity of β-catenin” throughout. Moreover, the “gene expression of Wnt16 (RT-PCR)” value is reported as “activate the gene expression” in experiment [3] (FIG. 8, listed as SEQ ID No: 1) and “increases” in experiment [3] (FIG. 8, listed as iPept-1). For the same substance, in experiment [3] (FIG. 9), the “gene expression of Wnt16 (QRT-PCR)” value is listed as “enhances the gene expression”. The “activation of β-catenin in hair follicle stem cells” value in experiment [4] was “effect on activating or regenerating the hair follicle stem cells; also recorded: activated”. Further, the “gene expression of Wnt7b (RT-PCR)” value in experiment [5] (FIG. 8, listed as SEQ ID No: 1) was “activate the gene expression”; in experiment [5] (FIG. 8, listed as iPept-1), “increases”. Besides, the “activation of marker CK15 of hair follicle stem cells” value in experiment [7] is “obviously activated”. For the same substance, in experiment [8], the “activation of Wnt3a in hair follicle stem cells” value is “obviously activated”. The “Number x” value in experiment [1] stood at 17 days.

As for “PSTHVLITHTIS (a designed peptide according to experiment) [P29]”, the “Number x” value in experiment [1] was 22 days.

As to “PSTHVLITHTISR (a designed peptide according to experiment) [P28]”, the “Number x” value in experiment [1] is recorded as “negative”.

“PSTHVLITHTISRI (a designed peptide according to experiment) [P6]”: in experiment [1], the “Number x” value came to 19 days.

Turning to “PSTHVLITHTS (a designed peptide according to experiment) [P27]”, in experiment [1], the “Number x” value is on record as “negative”.

Take “PSTHVLLTHTI (a designed peptide according to experiments) [P41]”: in experiment [1], the “Number x” value was found to be 19 days.

Consider “PSTHVLSFGSG (a designed peptide according to experiment) [P23]”, for which, in experiment [1], the “Number x” value is listed as “negative”.

On to “STHVL (a designed peptide according to experiment) [P5]”, for which the “Number x” value in experiment [1] is 19 days.

Regarding “STHVLITHTI (a designed peptide according to experiment) [P13]”, the “Number x” value in experiment [1] is on record as “negative”.

Consider “THVLITHTI (a designed peptide according to experiment) [P14]”, for which, in experiment [1], the “Number x” value is given as “negative”.

As to “VLITH (a designed peptide according to experiment) [P3]”, the “Number x” value in experiment [1] was determined as 17 days.

Regarding “VLITHTI (a designed peptide according to experiment) [P16]”, the “Number x” value in experiment [1] is given as “negative”.
